Test results as given in PubChem BioAssay AID256 (DTP/NCI, 2004).
Values joined by “and” are separate entries in the source; they are usually repeats but may differ in a detail not shown here. Equal entries are not always repeated. Inconclusive results and toxic doses are left out. How the source made its calls: active means survival T/C of 150% or more; inactive means T/C below 125% in these data.

Test system: CD2F1 mice, L1210 leukemia ip, survival T/C
Assay: NCI In Vivo Anticancer Drug Screen. Data for tumor model L1210 Leukemia (intraperitoneal) in CD2F1 (CDF1) mice
Conditions: higher = longer survival
Procedure, shortened: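 Activity against a transplanted murine tumor was judged by comparing the compound group with a vehicle group. The outcome in the treated animals was divided by that in the controls.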

[1] = endpoint: mean survival time, dose: 100.0 mg/kg/injection, schedule: Q04DX003 (ip), vehicle: saline with Tween-80
[2] = endpoint: mean survival time, dose: 100.0 mg/kg/injection, schedule: Q04DX003 (ip), vehicle: saline
[3] = endpoint: mean survival time, dose: 50.0 mg/kg/injection, schedule: Q01DX009 (ip), vehicle: saline with Tween-80
[4] = endpoint: mean survival time, dose: 100.0 mg/kg/injection, schedule: Q01DX009 (ip), vehicle: saline with Tween-80
[5] = endpoint: mean survival time, dose: 200.0 mg/kg/injection, schedule: Q01DX009 (ip), vehicle: saline with Tween-80
[6] = endpoint: mean survival time, dose: 50.0 mg/kg/injection, schedule: Q01DX001 (ip), vehicle: saline with Tween-80
[7] = endpoint: mean survival time, dose: 400.0 mg/kg/injection, schedule: Q01DX009 (ip), vehicle: saline with Tween-80
[8] = endpoint: mean survival time, dose: 100.0 mg/kg/injection, schedule: Q04DX002 (ip), vehicle: saline with Tween-80
[9] = endpoint: mean survival time, dose: 200.0 mg/kg/injection, schedule: Q04DX002 (ip), vehicle: saline with Tween-80
[10] = endpoint: mean survival time, dose: 400.0 mg/kg/injection, schedule: Q04DX002 (ip), vehicle: saline with Tween-80
[11] = endpoint: mean survival time, dose: 25.0 mg/kg/injection, schedule: Q04DX003 (ip), vehicle: saline with Tween-80
[12] = endpoint: mean survival time, dose: 50.0 mg/kg/injection, schedule: Q04DX003 (ip), vehicle: saline with Tween-80
[13] = endpoint: mean survival time, dose: 100.0 mg/kg/injection, schedule: Q01DX001 (ip), vehicle: saline with Tween-80
[14] = endpoint: mean survival time, dose: 200.0 mg/kg/injection, schedule: Q01DX001 (ip), vehicle: saline with Tween-80

Measured: T/C

COc1ccc(OC)c2c1CCC(=O)C2
inactive: endpoint: mean survival time, dose: 12.5 mg/kg/injection, schedule: Q01DX009 (ip), vehicle: other 102 % of control | endpoint: mean survival time, dose: 25.0 mg/kg/injection, schedule: Q01DX009 (ip), vehicle: other 104 % of control | endpoint: mean survival time, dose: 50.0 mg/kg/injection, schedule: Q01DX009 (ip), vehicle: other 102 % of control | endpoint: mean survival time, dose: 100.0 mg/kg/injection, schedule: Q01DX009 (ip), vehicle: other 107 % of control | endpoint: mean survival time, dose: 200.0 mg/kg/injection, schedule: Q01DX009 (ip), vehicle: other 107 % of control

COC(=O)CCCC1CCC(=NNc2ccc([N+](=O)[O-])cc2[N+](=O)[O-])CC1 (stereo not given)
inactive: [1] 86 % of control | endpoint: mean survival time, dose: 200.0 mg/kg/injection, schedule: Q04DX003 (ip), vehicle: saline with Tween-80 96 % of control | endpoint: mean survival time, dose: 400.0 mg/kg/injection, schedule: Q04DX003 (ip), vehicle: saline with Tween-80 93 % of control

Cc1c2ccncc2c(C)c2c1[nH]c1ccc(Br)cc12
inactive: endpoint: mean survival time, dose: 50.0 mg/kg/injection, schedule: Q04DX003 (ip), vehicle: saline 101 % of control | [2] 101 % of control | endpoint: mean survival time, dose: 200.0 mg/kg/injection, schedule: Q04DX003 (ip), vehicle: saline 103 % of control | endpoint: mean survival time, dose: 400.0 mg/kg/injection, schedule: Q04DX003 (ip), vehicle: saline 103 % of control

O=C(OCC(O)C(O)C(O)C(O)COC(=O)c1ccccc1)c1ccccc1 (stereo not given) (tested in a mixture with another compound)
inactive: [3] 98 % of control | [4] 110 % of control | [5] 98 % of control

C(=C(/C=C/c1ccccc1)/C=C/c1ccccc1)C(=C/c1ccccc1)/c1ccccc1
inactive: endpoint: mean survival time, dose: 12.5 mg/kg/injection, schedule: Q01DX001 (ip), vehicle: saline with Tween-80 100 % of control | endpoint: mean survival time, dose: 12.5 mg/kg/injection, schedule: Q01DX009 (ip), vehicle: saline with Tween-80 91 % of control | endpoint: mean survival time, dose: 25.0 mg/kg/injection, schedule: Q01DX001 (ip), vehicle: saline with Tween-80 90 % of control | [6] 92 % of control | [3] 86 % of control

O=C(CI)NCc1cn(C2CC(O)C(CO)O2)c(=O)[nH]c1=O (stereo not given)
inactive: endpoint: mean survival time, dose: 4.0 mg/kg/injection, schedule: Q01DX005 (ip), vehicle: water 106 % of control | endpoint: mean survival time, dose: 8.0 mg/kg/injection, schedule: Q01DX005 (ip), vehicle: water 114 % of control | endpoint: mean survival time, dose: 16.0 mg/kg/injection, schedule: Q01DX005 (ip), vehicle: water 106 % of control | endpoint: mean survival time, dose: 32.0 mg/kg/injection, schedule: Q01DX005 (ip), vehicle: water 111 % of control | endpoint: mean survival time, dose: 64.0 mg/kg/injection, schedule: Q01DX005 (ip), vehicle: water 114 % of control

O=C(O)C1(C(=O)O)CCC1
inactive: endpoint: mean survival time, dose: 100.0 mg/kg/injection, schedule: Q04DX002 (ip), vehicle: saline 92 % of control | endpoint: mean survival time, dose: 200.0 mg/kg/injection, schedule: Q04DX002 (ip), vehicle: saline 111 % of control

CCCCCCC[CH2][Sn]1([CH2]CCCCCCC)[O]C2C(CO)OC(n3cnc4c(=O)[nH]c(N)nc43)C2[O]1 (stereo not given)
inactive: endpoint: mean survival time, dose: 1.56 mg/kg/injection, schedule: Q01DX005 (ip), vehicle: other 96 % of control | endpoint: mean survival time, dose: 3.13 mg/kg/injection, schedule: Q01DX005 (ip), vehicle: other 98 % of control | endpoint: mean survival time, dose: 6.25 mg/kg/injection, schedule: Q01DX005 (ip), vehicle: other 102 % of control | endpoint: mean survival time, dose: 12.5 mg/kg/injection, schedule: Q01DX005 (ip), vehicle: other 104 % of control and 106 % of control

CCC(NC(=O)OCc1ccccc1)C(=O)O (stereo not given)
inactive: [4] 88 % of control | [5] 90 % of control | [7] 90 % of control

CCOC(=O)CC1(c2ccccc2)OC(=O)c2ccccc21 (stereo not given)
inactive: [8] 102 % of control | [9] 87 % of control | [10] 87 % of control

OC1OCC(COc2ccc(Cl)cc2)OC1O (stereo not given)
inactive: endpoint: median survival time, dose: 25.0 mg/kg/injection, schedule: Q01DX005 (ip), vehicle: saline with Tween-80 102 % of control | endpoint: median survival time, dose: 50.0 mg/kg/injection, schedule: Q01DX005 (ip), vehicle: saline with Tween-80 102 % of control | endpoint: median survival time, dose: 100.0 mg/kg/injection, schedule: Q01DX005 (ip), vehicle: saline with Tween-80 115 % of control | endpoint: median survival time, dose: 144.0 mg/kg/injection, schedule: Q01DX005 (ip), vehicle: saline with Tween-80 102 % of control | endpoint: median survival time, dose: 200.0 mg/kg/injection, schedule: Q01DX005 (ip), vehicle: saline with Tween-80 117 % of control | endpoint: median survival time, dose: 240.0 mg/kg/injection, schedule: Q01DX005 (ip), vehicle: saline with Tween-80 101 % of control | endpoint: median survival time, dose: 400.0 mg/kg/injection, schedule: Q01DX005 (ip), vehicle: saline with Tween-80 96 % of control

C=COC(=O)N1CCCCC1
inactive: endpoint: mean survival time, dose: 75.0 mg/kg/injection, schedule: Q01DX001 (ip), vehicle: saline 97 % of control | endpoint: mean survival time, dose: 150.0 mg/kg/injection, schedule: Q01DX001 (ip), vehicle: saline 98 % of control | endpoint: mean survival time, dose: 300.0 mg/kg/injection, schedule: Q01DX001 (ip), vehicle: saline 106 % of control

NC(=S)N/N=C/c1ccc(OC(=O)COc2cc(Cl)c(Cl)cc2Cl)cn1
inactive: [8] 122 % of control | [9] 114 % of control | [10] 122 % of control

COc1ccc(NC(=O)Nc2ccc(F)c(Cl)c2)c(OC)c1
inactive: [4] 97 % of control | [5] 103 % of control | [7] 112 % of control

CCCCCCCCCCCCN(C)C
inactive: endpoint: mean survival time, dose: 25.0 mg/kg/injection, schedule: Q01DX009 (ip), vehicle: saline with Tween-80 92 % of control | [11] 97 % of control | endpoint: mean survival time, dose: 50.0 mg/kg/injection, schedule: Q01DX001 (ip), vehicle: saline 96 % of control | [3] 92 % of control | [12] 100 % of control | endpoint: mean survival time, dose: 100.0 mg/kg/injection, schedule: Q01DX001 (ip), vehicle: saline 100 % of control | [1] 102 % of control

CCC12CCC(=O)C=C1CCCC2=O (stereo not given)
inactive: endpoint: mean survival time, dose: 100.0 mg/kg/injection, schedule: Q04DX003 (ip), vehicle: saline sonified 95 % of control

CC(=O)OCC(=O)[C@@]1(O)CC[C@H]2[C@@H]3CCC4=CC(=O)C=C[C@]4(C)[C@H]3C(=O)C[C@@]21C
inactive: endpoint: mean survival time, dose: 12.5 mg/kg/injection, schedule: Q04DX003 (ip), vehicle: Klucel (hydroxypropylcellulose) (HPC) 101 % of control | endpoint: mean survival time, dose: 25.0 mg/kg/injection, schedule: Q04DX003 (ip), vehicle: Klucel (hydroxypropylcellulose) (HPC) 109 % of control | endpoint: mean survival time, dose: 50.0 mg/kg/injection, schedule: Q04DX003 (ip), vehicle: Klucel (hydroxypropylcellulose) (HPC) 100 % of control

NC(C(=O)O)C(O)c1cnc[nH]1 (stereo not given)
inactive: endpoint: mean survival time, dose: 12.5 mg/kg/injection, schedule: Q01DX009 (ip), vehicle: water 96 % of control | endpoint: mean survival time, dose: 25.0 mg/kg/injection, schedule: Q01DX009 (ip), vehicle: water 100 % of control | endpoint: mean survival time, dose: 50.0 mg/kg/injection, schedule: Q01DX009 (ip), vehicle: water 100 % of control | endpoint: mean survival time, dose: 100.0 mg/kg/injection, schedule: Q01DX009 (ip), vehicle: water 104 % of control | endpoint: mean survival time, dose: 200.0 mg/kg/injection, schedule: Q01DX009 (ip), vehicle: water 102 % of control

NC(=O)C1(Cl)CC2C=CC1C2 (stereo not given)
inactive: [2] 94 % of control

CC(C)P(=O)(CC(=O)O)c1ccccc1 (stereo not given)
inactive: endpoint: mean survival time, dose: 25.0 mg/kg/injection, schedule: Q04DX002 (ip), vehicle: saline with Tween-80 107 % of control | endpoint: mean survival time, dose: 50.0 mg/kg/injection, schedule: Q04DX002 (ip), vehicle: saline with Tween-80 96 % of control | [8] 100 % of control

CC(C)OC(=O)Nc1cc(F)c(F)cc1F
inactive: [4] 103 % of control | [5] 103 % of control | [7] 103 % of control

CCN(CC)CCNc1cc2c3ccccc3ccc2c2ccccc12
inactive: [13] 88 % of control | [14] 95 % of control | endpoint: mean survival time, dose: 400.0 mg/kg/injection, schedule: Q01DX001 (ip), vehicle: saline with Tween-80 100 % of control

CCC(C)C(=O)c1ccccc1 (stereo not given)
inactive: [6] 100 % of control | [13] 95 % of control | [14] 100 % of control

N#C/C(=C\c1ccc([N+](=O)[O-])o1)[N+](=O)[O-]
inactive: [11] 104 % of control | [12] 94 % of control | [1] 97 % of control

COC(=O)/C(Br)=C/C(C)=O
inactive: [13] 107 % of control | [14] 95 % of control

CSc1ccc(NC(C)=O)cc1
inactive: endpoint: mean survival time, dose: 100.0 mg/kg/injection, schedule: Q01DX001 (ip), vehicle: Klucel (hydroxypropylcellulose) (HPC) 94 % of control | endpoint: mean survival time, dose: 200.0 mg/kg/injection, schedule: Q01DX001 (ip), vehicle: Klucel (hydroxypropylcellulose) (HPC) 96 % of control | endpoint: mean survival time, dose: 400.0 mg/kg/injection, schedule: Q01DX001 (ip), vehicle: Klucel (hydroxypropylcellulose) (HPC) 96 % of control
